Legend:
Format in all cases: functional
THP-1 [1] = assay: Antiinflammatory activity in PMA-treated human THP1 cells assessed as inhibition of LPS-induced TNFalpha secretion at 15 uM after 4 hrs by sandwich ELISA relative to control; conditions: THP-1, 4 h
THP-1 [2] = assay: Antiinflammatory activity in PMA-treated human THP1 cells assessed as LPS-induced TNFalpha secretion at 1 uM after 4 hrs by sandwich ELISA relative to control
THP-1 [3] = assay: Antiinflammatory activity in PMA-treated human THP1 cells assessed as inhibition of LPS-induced TNFalpha secretion at 1 uM after 4 hrs by sandwich ELISA relative to control; conditions: THP-1, 4 h
THP-1 [4] = assay: Antiinflammatory activity in PMA-treated human THP1 cells assessed as LPS-induced TNFalpha secretion at 15 uM after 4 hrs by sandwich ELISA relative to control
THP-1 [5] = assay: Antiinflammatory activity in PMA-treated human THP1 cells assessed as LPS-induced TNFalpha secretion at 0.10 uM after 4 hrs by sandwich ELISA relative to control
THP-1 [6] = assay: Antiinflammatory activity in PMA-treated human THP1 cells assessed as LPS-induced TNFalpha secretion at 10 uM after 4 hrs by sandwich ELISA relative to control
THP-1 [7] = assay: Antiinflammatory activity in PMA-treated human THP1 cells assessed as inhibition of LPS-induced TNFalpha secretion at 10 uM after 4 hrs by sandwich ELISA relative to control; conditions: THP-1, 4 h
THP-1 [8] = assay: Antiinflammatory activity in PMA-treated human THP1 cells assessed as inhibition of LPS-induced TNFalpha secretion at >=10 uM after 4 hrs by sandwich ELISA relative to control
THP-1 [9] = assay: Antiinflammatory activity in PMA-treated human THP1 cells assessed as LPS-induced TNFalpha secretion at 5 uM after 4 hrs by sandwich ELISA relative to control
THP-1 [10] = assay: Antiinflammatory activity in PMA-treated human THP1 cells assessed as LPS-induced TNFalpha secretion at 0.5 uM after 4 hrs by sandwich ELISA relative to control
THP-1 [11] = assay: Antiinflammatory activity in PMA-treated human THP1 cells assessed as inhibition of LPS-induced TNFalpha secretion at 0.5 uM after 4 hrs by sandwich ELISA relative to control; conditions: THP-1, 4 h

| SMILES | inhibition at 15 µM (THP-1 [1]) [%] | Activity (THP-1 [2]) [pg/mg] | inhibition at 1 µM (THP-1 [3]) [%] | Activity (THP-1 [4]) [pg/mg] | Activity (THP-1 [5]) [pg/mg] | Activity (THP-1 [6]) [pg/mg] | inhibition at 10 µM (THP-1 [7]) [%] | inhibition (INH) (THP-1 [8]) | Activity (THP-1 [9]) [pg/mg] | Activity (THP-1 [10]) [pg/mg] | inhibition at 0.5 µM (THP-1 [11]) [%] |
| --- | --- | --- | --- | --- | --- | --- | --- | --- | --- | --- | --- |
| COc1cccc2[nH]cc(C/C(=N\OS(=O)(=O)[O-])S[C@@H]3O[C@H](CO)[C@@H](O)[C@H](O)[C@H]3O)c12.[K+] | 46 | 187.45 | 24 | 135.01 | 214.36 | 146.53 | 41 | – | – | – | – |
| COn1cc(C/C(=N\OS(=O)(=O)[O-])S[C@@H]2O[C@H](CO)[C@@H](O)[C@H](O)[C@H]2O)c2ccccc21.[K+] | – | 228.9 | ≥ 24 | 169.06 | 251.69 | 181.1 | – | >=32% | – | – | – |
| O=S(=O)([O-])O/N=C(\Cc1c[nH]c2ccccc12)S[C@@H]1O[C@H](CO)[C@@H](O)[C@H](O)[C@H]1O.[K+] | 54 | 196.65 | ≥ 24 | 136.79 | 215.57 | 158.94 | – | – | – | – | – |
| Oc1cc(O)c2c(c1)OC(c1ccc(O)c(O)c1)C(O)C2 (centres undefined) [CATECHIN] | 48 | – | – | 255.94 | – | – | – | – | 282.65 | 303.98 | 37 |
